Data from US8334316B2, “Substituted organosulfur compounds and methods of using thereof” (ACEA Biosciences, Inc., priority 2004, dated 2012).

How the values were obtained:
[1] = system: A549 human lung cancer cells; experiment: Apoptosis: Annexin V-Cy3 / 6-CFDA staining of A549 cells; assay type: cell-based; details: 10 nM, 24 hrs
Description: The cells were incubated with the drugs for 24 hours and then washed 2× with PBS and 3× with binding buffer (10 mM HEPES, pH 7.5, 140 mM NaCl, 2.5 mM CaCl2). […] The cells were gently washed 3× in 1× binding buffer, mounted, viewed under immunofluorescent microscope and imaged using an attached CCD camera. Note that live cells show staining only with 6-CFDA (green), while necrotic cells will stain only with Annexin V-Cy3 (red). Cells starting the apoptotic process will stain both with AnnexinV-Cy3 and 6-CFDA.

[2] = system: microtubules in COS cells; experiment: Microtubule network in cultured COS cells (anti-tubulin immunofluorescence, confocal microscopy); assay type: cell-based
Description: Cell Culture and Immunocytochemistry. COS cells were grown in DMEM media supplemented with non-essential amino acids, 10% FBS, antibiotic-antimycotic (Gibco BRL) at 37° C. and 5.5% CO2. […] Cells were then rinsed once with warm PBS, fixed with cold methanol, rinsed again in PBS and blocked overnight at 4° C. in PBT (PBS, 1% BSA, 0.5% Triton X-100). All subsequent stains and washes were done in PBT at room temperature unless stated otherwise. Cells were stained with the anti-tubulin mouse antibody DM-1 at 1:1000 for 1 hour, washed four times for 15 minutes each and then treated with Cy-3 conjugated goat anti mouse antibody at 1:100 for 1 hour in the dark. Next, samples were washed four times for 15 minutes each in PBT in the dark followed by a final 15 minute wash in PBS in the dark. Samples were then viewed by laser scanning confocal microscopy.

[3] = system: A431 cells (human epidermoid cancer cells); experiment: RT-CES system cell proliferation, A431; assay type: cell-based; details: FIG. 6B
Description: A431 cells (human epidermoid cancer cells) were seeded into wells of microtiter plate devices (electronic plates, i.e., the plates comprise microelectrode sensor arrays in the wells of the plate) with an initial seeding density of 10,000 cells per well and were pre-incubated in incubator under standard cell culture conditions for about 22.3 hrs. Various concentrations of DBTS and 5-fluorouracil solutions were added into wells following the incubation period. The cell status was monitored prior to and after the compound addition using RT-CES system.

[4] = system: P388 lymphocytic leukemia; experiment: Murine P388 lymphocytic leukemia model (intraperitoneal transplantation), life span; assay type: in vivo, mouse; details: 2 mg/kg/d iv x7 qd
Description: Both male and female mice were used.
Preparation and Administration of Test Compounds.
To prepare cancer cells for the P388 murine lymphocytic leukemia model, ascites of a P388 leukemia-bearing mouse were removed under sterile condition. The ascites were diluted in normal saline (1:6 for ascites to normal saline) to prepare cell suspension. 0.2 mL of the cell suspension was then injected intraperitoneally. […] The life span of carrier mice was determined within 30 days. The life span ratio comparing to the negative control group of the carrier mice in each compound treatment group was calculated according to the formula: Life span ratio %=average life span for the compound treatment group/average life span for the negative control group×100% (4)

HT1080 cells = experiment: Inhibition of cancer cell proliferation, IC50 of ACEA100129 (RT-CES or MTT, not specified), HT1080; assay type: cell-based; details: Homo sapiens, HT-1080
Description: (§1) The anticancer potency of DBTS and its derivatives were tested in 8 different types of human cancer cell lines using the RT-CES system and MTT assay. The 8 cancer cell lines were HT1080 (the human fibrosarcoma cell line), H460 (human non small cell lung cancer cell line), OVCAR4 (the human ovarian cancer cell line), MCF7 (human breast cancer cell line) MDA-MB231 (M231, the human breast cancer cell line) A2780 (the human […] cancer cell line) Jurkat (the human T cell leukemia cell line). The test DBTS derivatives include ACEA100107, ACEA100108, ACEA100109, ACEA100111, ACEA100115, ACEA100116, ACEA100117, ACEA100118, ACEA100119, and ACEA100120.
(§2) For the assay performed on the RT-CES system, the cells were seeded into the 16× or 96× microtiter plate devices (electronic plates, i.e., the plates comprise microelectrode sensor arrays in the wells of the plate) at the seeding density ranging from 5000 cells/well to 15,000 cells/well. The cells were incubated at 5% CO2 and 37° C. for overnight till the cell indices reached the growth phase where the cell index was between 0.8 and 1.2. […] The time-dependent IC50 values for each derivative were calculated based the dose responses of cell index value at different time points after compound treatment. […]

MCF7 cells = experiment: Inhibition of cancer cell proliferation, IC50 of ACEA100129 (RT-CES or MTT, not specified), MCF7; assay type: cell-based; details: Homo sapiens
Description: as §1, §2

HELA cells = experiment: Inhibition of cancer cell proliferation, IC50 of ACEA100129 (RT-CES or MTT, not specified), HELA; assay type: cell-based; details: Homo sapiens
Description: as §1, §2

mouse sarcoma S180 = experiment: In vivo antitumor efficacy, mouse sarcoma S180 model (subcutaneously transplanted), Example 1; details: 30 mg/kg/d ip x7 qd
mouse Lewis lung cancer [5] = experiment: In vivo antitumor efficacy, mouse Lewis lung cancer model, Example 2 (DBTS, CTX, Taxol reference); details: 30 mg/kg/d ip x7 qd
mouse Lewis lung cancer [6] = experiment: In vivo antitumor efficacy, mouse Lewis lung cancer model (subcutaneously transplanted), Example 1
Description: Test controls. For the negative control, two groups were set up: the solvent only control group and normal saline control group. […] In the normal saline group, each mouse was administered with 0.5 ml of normal saline, once per day and for 7 or 10 consecutive days. For the positive control group, the anticancer compound, cyclophosphamide (CTX) was administered intraperitoneally at 30 mg/kg, once per day and for 7 or 10 consecutive days.
In the mouse Lewis lung cancer model, 200 mg of DBTS was dissolved in 5 mL castor oil (in polyoxyethlated version). […] The intravenous injection speed was about 0.5 mL/0.5 min.
The dosages and administration of test compounds are within the knowledge of those commonly skilled in pharmacology. For example, the test compounds may be administered by intravenous injection with a test compound solution twice per day and for 7 consecutive days. Alternatively, the test compounds may be administered by intravenous injection with a test compound solution once per day and for 10 consecutive days.
0.2 mL of the tumor cell suspension (between 4 and 8 million tumor cells) was then transplanted back into an experimental mouse by subcutaneous injection. […] Each removed solid tumor was weighted, and the tumor inhibition rate in the DBTS-treated groups and in the CTX-treated group was calculated according to the formula: Tumor inhibition rate %=(average weight of tumor in the negative control group−average weight of tumor in the compound treated group)/average weight of tumor in the negative control group×100 (2)
For the mouse Lewis lung cancer model, the Lewis lung cancer cells were subcutaneously transplanted at approximately 5 million cells per mouse. After 24 hours of the transplantation, each mouse in the test group was administered intravenously with dibenzyl trisulfide at 50, 25, or 12.5 mg/kg per day and for 10 consecutive days. For the positive control group, each mouse was administered with CTX at […] intraperitoneally per day and for 10 consecutive days. For the negative control group, each mouse was administered intravenously either with normal saline, or with the solvent for dibenzyl trisulfide at the same concentration as that in the test group per day and for consecutive 10 days. For each group, 10 mice were used.

CC[C@]1(O)C[C@@H]2CN(CCc3c([nH]c4ccccc34)[C@@](C(=O)OC)(c3cc4c(cc3OC)N(C)[C@H]3[C@@](O)(C(=O)OC)[C@H](OC(C)=O)[C@]5(CC)C=CCN6CC[C@]43[C@@H]65)C2)C1 [vinblastine, reference compound]
Annexin V staining (apoptosis) [1]: strong staining of Annexin V
Microtubule network appearance ([2]; 4 hours exposure): the microtubule network begins to fall apart and the microtubules become much shorter
Microtubule network appearance ([2]; 24 hours exposure, increasing dosage): major cell abnormalities are widespread in the microtubule network

O=c1[nH]cc(F)c(=O)[nH]1 [5-fluorouracil]
Concentration showing inhibitory ability against proliferation [3]: ≥ 12.5 µM

CO[C@@]12[C@H](COC(N)=O)C3=C(C(=O)C(C)=C(N)C3=O)N1C[C@@H]1N[C@@H]12 [MMC, mitomycin C, reference compound]
Beginning animal weight [4]: 20.6 g
animal No. beginning/end (survivors) [4]: 10/1
Average life span X ± SD ([4]; observed within 30 days): 18.1 ± 0.15
Life span ratio % ([4]; vs solvent control): 186.59%

Cc1ccc(CSSSCc2ccc(C)cc2)cc1 [ACEA100129, Di(p-methylbenzyl)trisulfide]
IC50 (HT1080 cells): 0.82 µM
IC50 (MCF7 cells): 2.3 µM
IC50 (HELA cells): 0.42 µM

O=P1(N(CCCl)CCCl)NCCCO1 (centres unmarked) [CTX, cyclophosphamide, reference compound]
Animal weight (g) beginning (mouse sarcoma S180): 19.6 g
Animal weight (g) end (mouse sarcoma S180): 20.3 g
Inhibition rate (%) (mouse sarcoma S180; vs 10% solvent control): 88.83%
Inhibition rate (%) (mouse sarcoma S180; vs normal saline control): 91.76%
Animal weight (g) beginning (mouse Lewis lung cancer [5]): 21.1 g
Animal weight (g) end (mouse Lewis lung cancer [5]): 22.3 g
Tumor weight (mouse Lewis lung cancer [5]): 0.258 ± 0.09 g
tumor inhibition rate % (mouse Lewis lung cancer [5]; vs normal saline control): 90.75%
Animal weight (g) beginning (mouse Lewis lung cancer [6]; 30 mg/kg/d ip): 19.1 g
Animal weight (g) end (mouse Lewis lung cancer [6]; 30 mg/kg/d ip): 20.2 g
Inhibition rate (%) (mouse Lewis lung cancer [6]; 30 mg/kg/d ip x7 qd, vs 5% solvent control): 85.83%
Inhibition rate (%) (mouse Lewis lung cancer [6]; 30 mg/kg/d ip x10 qd, vs normal saline control): 87.62%
